Common to all, as to format: physicochemical
Assay [1] can be described thus: Singlet oxygen generation quenching, Stern-Volmer, Pp-MeIX in acetonitrile. The settings on record: air saturated acetonitrile, 532 nm excitation, 1O2 phosphorescence at 1270 nm, slope of FIG. 7. As for the experimental part:
(§1) Singlet oxygen phosphorescence measurements of the air saturated acetonitrile solutions of the dimethyl ester derivative of PpIX (Pp-MeIX) at the concentration optimal for light absorption and Compound 1 at various concentrations were performed on a modified Fluorolog-3 spectrometer (HORIBA Jobin Yvon) in conjunction with a NIR sensitive photomultiplier tube (H102330A-45, Hamamatsu). A Spectra Physics GCR-150-30 Nd:YAG laser (532 nm, ca. 5 mJ per pulse, 7 ns) was used for pulsed excitation to collect ^1O2 phosphorescence decay traces at 1270 nm which were stored on a digital oscilloscope (TDS 360 from Tektronics). The Stern-Volmer plots of singlet oxygen phosphorescence were illustrated in FIG. 7. The Stern-Volmer constant Ksv was calculated from the slope of the plot in FIG. 7 to be 57±2 M^−1, which is a direct measurement of the singlet oxygen suppression efficiency of Compound 1.

A short description of assay [2]: Fluorescence quenching of retinol (TCSPC fluorescence lifetimes). The note with it: THF, retinol 0.2 mM, excitation 335 nm, fluorescence at 483 nm; slope of FIG. 2. As to the method: The THF solutions of retinol at 0.2 mM and Compound 1 at various concentration were measured on OB920 TR-SPC (Edinburgh Analytical Instruments) by time-correlated single photon counting (TCSPC) using a pulsed LED (335 nm, 5 MHz) for excitation (PicoQuant) for the corresponding fluorescence lifetimes. The fluorescence signal was collected at 483 nm.

Assay [3] is described as follows: PpIX singlet excited state quenching (TCSPC fluorescence lifetimes). The note with it: acetonitrile, excitation 496 nm, fluorescence at 630 nm; slope of FIG. 5. As to the method:
The acetonitrile solutions of PpIX at a concentration optimal for light absorption and Compound 1 at various concentration were measured on OB920 TR-SPC (Edinburgh Analytical Instruments) by time-correlated single photon counting (TCSPC) using a pulsed LED (496 nm) for excitation (PicoQuant) for the corresponding fluorescence lifetimes. The fluorescence signal was collected at 630 nm.

A short description of assay [4]: Singlet oxygen generation quenching, Stern-Volmer, Pp-MeIX in CDCl3. The settings on record: air saturated CDCl3, Pp-MeIX, 532 nm excitation, 1O2 phosphorescence at 1270 nm; slope of FIG. 8B. As to the method: as §1, with “saturated CDCl3” for “saturated acetonitrile”, “FIG. 8B.” for “FIG. 7.”, “FIG. 8B” for “FIG. 7”, “be 14±1” for “be 57±2”
The nature of assay [5]: Singlet oxygen quenching rate constant in acetonitrile (phosphorescence lifetime). The settings on record: air saturated acetonitrile, Pp-MeIX, 1O2 phosphorescence lifetime at 1270 nm; slope of FIG. 9B. As for the experimental part: as §1, with “Tektronics).” for “Tektronics). The Stern-Volmer plots of singlet oxygen phosphorescence were illustrated in FIG. 7. The Stern-Volmer constant Ksv was calculated from the slope of the plot in FIG. 7 to be 57±2 M^−1, which is a direct measurement of the singlet oxygen suppression efficiency of Compound 1.”

Assay [6] can be described thus: Keto-Avobenzone triplet state quenching (laser flash photolysis, transient absorption). The note with it: deoxygenated acetonitrile, avobenzone 0.25 mM, 266 nm flash photolysis, monitored at 380 nm; slope of FIG. 3. As for the experimental part:
The deoxygenated acetonitrile solutions of avobenzone at 0.25 mM and Compound 1 at various concentrations were measured for transient absorption on a homebuilt system (Y. Yagci, S. Jockusch and N. J. Turro, Macromolecules, 2007, 40, 4481-4485; hereby incorporated by reference in its entirety). Keto-Avobenzone was generated by photolysis of enol-Avobenzone at 350 nm. Laser flash photolysis of keto-Avobenzone was conducted at 266 nm with 5 ns pulse width as shown below:
The decay traces of the triplet-absorption of keto-Avobenzone was monitored at 380 nm.

The nature of assay [7]: PpIX triplet state quenching (transient absorption). The note with it: Argon saturated acetonitrile, 532 nm excitation, transient absorbance at 630 nm; slope of FIG. 4. As to the method:
The Argon saturated acetonitrile solutions of Protoporphyrin IX (PpIX) at a concentration optimal for light absorption and Compound 1 at various concentrations were measured for transient absorption on a homebuilt system (Y. Yagci, S. Jockusch and N. J. Turro, Macromolecules, 2007, 40, 4481-4485; hereby incorporated by reference in its entirety). Triplet lifetimes were measured at 532 nm (7 ns pulse length) and the transient absorbance was monitored at 630 nm.

Consider `CCCCC(CC)COC(=O)/C(C#N)=C1/c2ccccc2-c2cccnc21` (stereo not shown) [Compound 1], for which the “Stern-Volmer constant Ksv (singlet oxygen suppression efficiency)” value is 57 ± 2 M⁻¹ in assay [1] and 14 ± 1 M⁻¹ in assay [4]. The “bimolecular quenching rate constant Kq of quenching of retinol fluorescence” value in assay [2] was “(9.0±0.3)×10^9 M^−1s^−1”. Also, in assay [3], the “bimolecular quenching rate constant Kq of quenching of PpIX fluorescence (singlet excited state)” value was 2.5±0.1×10^9 M^−1s^−1. Further, the “bimolecular quenching rate constant kq of singlet oxygen quenching” value in assay [5] was 1.5±0.1×10^5 M^−1s^−1. For the same compound, in assay [6], the “quenching rate constant kq of keto-Avobenzone triplet states” value is on record as “(3.5±0.2)×10^9 M^−1s^−1”. In addition, the “quenching rate constant kq of PpIX triplet states” value in assay [7] is reported as 2.7±0.1×10^7 M^−1s^−1.

The values are drawn from patent US11655215B2, “Photostabilizing compounds, compositions, and methods” (ELC MANAGEMENT LLC, priority 2018, dated 2023).
